Assay [1] deals with BDF1 mice, P388 leukemia ip, median survival T/C. Nature of the assay: NCI In Vivo Anticancer Drug Screen. Data for tumor model P388 Leukemia (intraperitoneal) in B6D2F1 (BDF1) mice. The settings on record: endpoint: median survival time, higher = longer survival. The method, boiled down: (§1)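 Survival ratio, drug arm over vehicle arm, in mice with a transplanted tumour.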
Assay [2] relates to BDF1 mice, P388 leukemia ip. The assay is described as above. The following applies: endpoint: mean survival time, higher = longer survival. In outline: as §1

Data on 4 compounds can be found in PubChem BioAssay AID328 (DTP/NCI, 2004).

Toxic doses and inconclusive results are not listed.

Take `CCC1(O)CC(OC2CC(N(C)C)C(OC3CC4OC5CC(=O)C(C)OC5OC4C(C)O3)C(C)O2)c2c(cc3c(c2O)C(=O)c2c(O)ccc(O)c2C3=O)C1C(=O)OC` (stereo not drawn): the T/C was 104 % of control in assay [1] (dose: 0.75 mg/kg/injection, schedule: Q01DX001 (ip), vehicle: saline); 121 % of control in assay [1] (dose: 0.86 mg/kg/injection, schedule: Q04DX003 (ip), vehicle: water); 114 % of control in assay [1] (dose: 1.25 mg/kg/injection, schedule: Q01DX001 (ip), vehicle: saline); 157 % of control in assay [1] (dose: 1.3 mg/kg/injection, schedule: Q04DX003 (ip), vehicle: water); 109 % of control in assay [1] (dose: 1.5 mg/kg/injection, schedule: Q01DX001 (ip), vehicle: saline); 155 % of control in assay [1] (dose: 1.73 mg/kg/injection, schedule: Q04DX003 (ip), vehicle: water). Moreover, the T/C was 191 % of control in assay [1] (dose: 2.16 mg/kg/injection, schedule: Q04DX003 (ip), vehicle: water); 165 % of control in assay [1] (dose: 2.4 mg/kg/injection, schedule: Q04DX003 (ip), vehicle: water); 166 % of control in assay [1] (dose: 5.0 mg/kg/injection, schedule: Q01DX001 (ip), vehicle: saline); 195 % of control in assay [1] (dose: 10.0 mg/kg/injection, schedule: Q01DX001 (ip), vehicle: saline); 111 % of control in assay [2] (dose: 0.09 mg/kg/injection, schedule: Q01DX010 (ip), vehicle: saline); 95 % of control in assay [2] (dose: 0.38 mg/kg/injection, schedule: Q01DX010 (ip), vehicle: saline). For the same compound, the T/C in assay [2] (dose: 1.5 mg/kg/injection, schedule: Q01DX010 (ip), vehicle: saline) is 87 % of control.

`CCN(CC)CCCC(C)NC(=O)c1cccc2c(N)cccc12` (stereo not drawn): the T/C in assay [1] (dose: 25.0 mg/kg/injection, schedule: Q04DX003 (ip), vehicle: water) is 91 % of control; in assay [1] (dose: 50.0 mg/kg/injection, schedule: Q04DX003 (ip), vehicle: water) it was 106 % of control; in assay [1] (dose: 100.0 mg/kg/injection, schedule: Q04DX003 (ip), vehicle: water) it was 97 % of control; in assay [1] (dose: 200.0 mg/kg/injection, schedule: Q04DX003 (ip), vehicle: water) it was 100 % of control; in assay [1] (dose: 400.0 mg/kg/injection, schedule: Q04DX003 (ip), vehicle: water), 104 % of control; in assay [2] (dose: 25.0 mg/kg/injection, schedule: Q01DX009 (ip), vehicle: water) it was 98 % of control. Further, the T/C was 106 % of control in assay [2] (dose: 50.0 mg/kg/injection, schedule: Q01DX009 (ip), vehicle: water); 93 % of control in assay [2] (dose: 100.0 mg/kg/injection, schedule: Q01DX009 (ip), vehicle: water); 91 % of control in assay [2] (dose: 200.0 mg/kg/injection, schedule: Q01DX009 (ip), vehicle: water); 110 % of control in assay [2] (dose: 400.0 mg/kg/injection, schedule: Q01DX009 (ip), vehicle: water).

For `CC1=C(C)C(=O)O[C@@H]([C@](C)(O)[C@]2(O)CC[C@@]3(O)[C@@H]4C[C@H]5O[C@]56CC=CC(=O)[C@]6(C)[C@H]4CC[C@]23C)C1`, the T/C in assay [2] (dose: 50.0 mg/kg/injection, schedule: Q02DX003 (ip), vehicle: saline) is 114 % of control; in assay [2] (dose: 100.0 mg/kg/injection, schedule: Q02DX003 (ip), vehicle: saline), 117 % of control.

As to `ClCC[N-]CC[N-]CCCl.ClCC[N-]CC[N-]CCCl.[O-][Cl+3]([O-])([O-])O.[Zn+2]`, the T/C in assay [1] (dose: 2.5 mg/kg/injection, schedule: Q04DX003 (ip), vehicle: Klucel (hydroxypropylcellulose) (HPC)) is 105 % of control; in assay [1] (dose: 5.0 mg/kg/injection, schedule: Q03DX003 (ip), vehicle: saline), 110 % of control; in assay [1] (dose: 5.0 mg/kg/injection, schedule: Q04DX003 (ip), vehicle: Klucel (hydroxypropylcellulose) (HPC)) it was 112 % of control; in assay [1] (dose: 10.0 mg/kg/injection, schedule: Q04DX003 (ip), vehicle: Klucel (hydroxypropylcellulose) (HPC)), 108 % of control; in assay [1] (dose: 20.0 mg/kg/injection, schedule: Q04DX003 (ip), vehicle: Klucel (hydroxypropylcellulose) (HPC)), 124 % of control; in assay [1] (dose: 40.0 mg/kg/injection, schedule: Q03DX003 (ip), vehicle: saline), 75 % of control. Besides, the T/C in assay [1] (dose: 40.0 mg/kg/injection, schedule: Q04DX003 (ip), vehicle: Klucel (hydroxypropylcellulose) (HPC)) was 154 % of control; in assay [1] (dose: 80.0 mg/kg/injection, schedule: Q03DX003 (ip), vehicle: saline), 33 % of control.
